Tests used:
Cryptosporidium parvum = test: Antiparasitic activity against Cryptosporidium parvum infected in human HCT-8 cells assessed as parasitic growth inhibition incubated for 48 hrs by fluorescence microscopic analysis; type: functional, organism-based; details: HCT-8, 48 h
HCT-8 = test: Cytotoxicity against human HCT-8 cells assessed as reduction in cell number upto 50 uM incubated for 48 hrs by; type: toxicity, cell-based; details: hct-8, 48 h

Compound | EC50 (Cryptosporidium parvum) [µM] | Activity (HCT-8)
N#Cc1cc(CC(=O)N2CCN(c3ccc4nncn4n3)CC2)ccc1F | 2.1 | Non-Toxic
O=C(Cc1ccc(C(F)(F)F)c(F)c1)N1CCN(c2ccc3nncn3n2)CC1 | 2 | Non-Toxic
O=C(Cc1ccc(O)cc1)N1CCN(c2ccc3nncn3n2)CC1 | > 50 | Non-Toxic
O=C(Cc1cccc(O)c1)N1CCN(c2ccc3nncn3n2)CC1 | 34 | Non-Toxic
COc1ccc(CC(=O)N2CCN(c3ccc4nncn4n3)CC2)cc1F | 12 | Non-Toxic
Cc1ccc(CC(=O)N2CCN(c3ccc4nncn4n3)CC2)cc1 | 10 | Non-Toxic
O=C(Cc1ccc(Br)c(Cl)c1)N1CCN(c2ccc3nncn3n2)CC1 | 0.25 | Non-Toxic
O=C(Cc1cccc(S(F)(F)(F)(F)F)c1)N1CCN(c2ccc3nncn3n2)CC1 | 1.1 | Non-Toxic
O=C(Cc1ccc(C(F)(F)F)cc1)N1CCN(c2ccc3nncn3n2)CC1 | 5.5 | Non-Toxic
C#Cc1ccc(CC(=O)N2CCN(c3ccc4nncn4n3)CC2)cc1 | 0.88 | Non-Toxic
O=C(Cc1cccc(F)c1)N1CCN(c2ccc3nncn3n2)CC1 | 14 | Non-Toxic
O=C(Cc1ccc(S(F)(F)(F)(F)F)cc1)N1CCN(c2ccc3nncn3n2)CC1 | 12 | Non-Toxic
N#Cc1ccc(CC(=O)N2CCN(c3ccc4nncn4n3)CC2)cc1F | 1.6 | Non-Toxic
O=C(Cc1ccc(F)c(F)c1)N1CCN(c2ccc3nncn3n2)CC1 | 0.76 | Non-Toxic
Cc1cc(F)ccc1CC(=O)N1CCN(c2ccc3nncn3n2)CC1 | 22 | Non-Toxic
O=C(Cc1ccc(F)c(Cl)c1)N1CCN(c2ccc3nncn3n2)CC1 | 0.24 | Non-Toxic
O=C(Cc1cc(F)c(F)c(F)c1)N1CCN(c2ccc3nncn3n2)CC1 | 0.4 | Non-Toxic

Compound | EC50 (Cryptosporidium parvum) [µM] | Activity (HCT-8)
COc1cc(CC(=O)N2CCN(c3ccc4nncn4n3)CC2)ccc1F | 1 | Non-Toxic
O=C(Cc1cccc(Cl)c1Cl)N1CCN(c2ccc3nncn3n2)CC1 | > 25 | Non-Toxic
N#Cc1ccc(CC(=O)N2CCN(c3ccc4nncn4n3)CC2)cc1 |  | Non-Toxic
O=C(Cc1c(Cl)cccc1Cl)N1CCN(c2ccc3nncn3n2)CC1 | > 25 | Non-Toxic
O=C(Cc1cc(Cl)ccc1Cl)N1CCN(c2ccc3nncn3n2)CC1 | 58 | Non-Toxic
O=C(Cc1cc(F)cc(F)c1)N1CCN(c2ccc3nncn3n2)CC1 | 5.7 | Non-Toxic
Cc1cc(CC(=O)N2CCN(c3ccc4nncn4n3)CC2)ccc1Cl | 0.27 | Non-Toxic
O=C(Cc1ccc(Br)c(F)c1)N1CCN(c2ccc3nncn3n2)CC1 | 0.77 | Non-Toxic
O=C(Cc1cc(Cl)cc(Cl)c1)N1CCN(c2ccc3nncn3n2)CC1 | 1.2 | Non-Toxic
O=C(Cc1cccc(-c2ccccc2)c1)N1CCN(c2ccc3nncn3n2)CC1 | 25 | Non-Toxic
O=C(Cc1ccc(Cl)c(C(F)(F)F)c1)N1CCN(c2ccc3nncn3n2)CC1 | 0.27 | Non-Toxic
O=C(Cc1ccc([N+](=O)[O-])cc1)N1CCN(c2ccc3nncn3n2)CC1 |  | Non-Toxic
COc1ccc(CC(=O)N2CCN(c3ccc4nncn4n3)CC2)cc1 |  | Non-Toxic
COc1cccc(CC(=O)N2CCN(c3ccc4nncn4n3)CC2)c1 |  | Non-Toxic
O=C(Cc1ccc(F)cc1)N1CCN(c2ccc3nncn3n2)CC1 |  | Non-Toxic
O=C(Cc1cccc(Cl)c1)N1CCN(c2ccc3nncn3n2)CC1 |  | Non-Toxic
O=C(Cc1ccc(Cl)cc1)N1CCN(c2ccc3nncn3n2)CC1 |  | Non-Toxic
